Assay results from patent publication US12331054B2, “Perk inhibiting imidazolopyrazine compounds” (HiberCell, Inc., priority 2019, dated 2025).

Tests used:
[1] = molecular target: Recombinant human EIF2AK3 (PERK) catalytic domain (amino acids 536-1116) (Homo sapiens (Human), UniProt Q9NZJ5); test: PERK In Vitro Activity Assay (isolated), TR-FRET kinase assay; settings: isolated PERK enzyme, 1.5 μM ATP, read-out: Biochemical IC50
How it was run: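 Recombinant PERK catalytic domain was incubated with 100–200 nM GFP-eIF2a substrate in 50 mM HEPES pH 7.5, 10 mM MgCl2, 1.0 mM EGTA and 0.01% Brij-35 for 45 min at room temperature. After a 10 mM EDTA stop, 2 nM Tb-anti-phospho-eIF2a was added for 90 min, and IC50 was fitted from TR-FRET ratios by 4-parameter logistic regression.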

[2] = test system: eIF2α in HEK293-EGFP-eIF2α cells; test: PERK Cellular Assay (HEK293-EGFP-eIF2α cells, tunicamycin-induced ER stress, TR-FRET); format: cell-based; settings: tunicamycin 2 hours
How it was run: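 Cells pre-incubated with inhibitor 30 min at 37 °C, then ER stress induced with […] tunicamycin for 2 h. TR-FRET read on lysates; ratio normalized to DMSO control as percent inhibition over a 10-point, 3-fold dilution series; IC50 from 4-parameter logistic fit.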

Chain of Recombinant human EIF2AK3 (PERK) catalytic domain (amino acids 536-1116) (Q9NZJ5 536-1116): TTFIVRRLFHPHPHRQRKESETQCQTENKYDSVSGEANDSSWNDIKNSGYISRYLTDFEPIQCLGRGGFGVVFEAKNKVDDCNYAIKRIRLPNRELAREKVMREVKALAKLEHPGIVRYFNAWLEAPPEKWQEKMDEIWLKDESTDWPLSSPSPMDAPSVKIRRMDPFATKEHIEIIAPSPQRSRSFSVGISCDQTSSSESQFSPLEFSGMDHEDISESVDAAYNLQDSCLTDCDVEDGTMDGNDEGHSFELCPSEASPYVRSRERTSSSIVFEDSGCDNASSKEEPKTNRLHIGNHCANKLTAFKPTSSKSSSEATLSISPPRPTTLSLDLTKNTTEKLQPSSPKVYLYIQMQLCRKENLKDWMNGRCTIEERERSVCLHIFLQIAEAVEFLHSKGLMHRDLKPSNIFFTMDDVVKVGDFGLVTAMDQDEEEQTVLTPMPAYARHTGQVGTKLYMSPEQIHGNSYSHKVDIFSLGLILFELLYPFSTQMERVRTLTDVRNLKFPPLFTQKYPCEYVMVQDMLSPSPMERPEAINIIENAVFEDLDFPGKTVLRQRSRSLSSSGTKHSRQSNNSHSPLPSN

SMILES	IC50 [1] [nM]	IC50 [2] [nM]
Cc1cnc(N)c2c(-c3ccc(NC(=O)C(O)c4cccc(F)c4)c(F)c3)nc(C)n12 (centres unmarked) [Example 124, N-(4-(8-amino-3,5-dimethyl-imidazo[1,5-a]pyrazin-1-yl)-2-fluorophenyl)-2-(3-fluorophenyl)-2-hydroxy-acetamide]	26 to 50	501 to 1000
Cc1cnc(N)c2c(-c3ccc(NC(=O)C(O)c4cccc(F)c4)cc3OC(F)(F)F)nc(C)n12 (centres unmarked) [Example 126, N-(4-(8-amino-3,5-dimethyl-imidazo[1,5-a]pyrazin-1-yl)-3-(trifluoromethoxy)phenyl)-2-(3-fluorophenyl)-2-hydroxyacetamide]	101 to 250	501 to 1000
Cc1cn2c(C)nc(-c3ccc(NC(=O)C(O)c4cccc(F)c4)c(F)c3F)c2c(N)n1 (centres unmarked) [Example 129, N-(4-(8-amino-3,6-dimethyl-imidazo[1,5-a]pyrazin-1-yl)-2,3-difluoro-phenyl)-2-(3-fluorophenyl)-2-hydroxyacetamide]	501 to 1000	> 5000
[2H]C([2H])([2H])c1nc(-c2ccc(NC(=O)C(O)c3cccc(F)c3)c(F)c2F)c2c(N)nc(C)cn12 (centres unmarked) [Example 131, N-[4-[8-amino-6-methyl-3-(trideuteriomethyl)imidazo[1,5-a]pyrazin-1-yl]-2,3-difluoro-phenyl]-2-(3-fluoro-phenyl)-2-hydroxy-acetamide]	501 to 1000	3000 to 4000
[2H]C([2H])([2H])c1nc(-c2ccc(NC(=O)C(O)c3cccc(F)c3)c(F)c2F)c2c(N)ncc(C(F)(F)F)n12 (centres unmarked) [Example 135, N-[4-[8-amino-3-(trideuteriomethyl)-5-(trifluoromethyl)imidazo[1,5-a]pyrazin-1-yl]-2,3-difluoro-phenyl]-2-(3-fluorophenyl)-2-hydroxy-acetamide]	101 to 250	501 to 1000
[2H]C([2H])([2H])c1nc(-c2ccc(NC(=O)C(O)c3cccc(Cl)c3)c(F)c2F)c2c(N)nc(C)cn12 (centres unmarked) [Example 141, N-[4-[8-amino-6-methyl-3-(trideuteriomethyl)imidazo[1,5-a]pyrazin-1-yl]-2,3-difluoro-phenyl]-2-(3-chlorophenyl)-2-hydroxy-acetamide]	51 to 100	501 to 1000
[2H]C([2H])([2H])c1nc(-c2ccc(NC(=O)C(O)c3cccc(Cl)c3)c(F)c2F)c2c(N)ncc(C(F)(F)F)n12 (centres unmarked) [Example 143, N-[4-[8-amino-3-(trideuteriomethyl)-5-(trifluoromethyl)imidazo[1,5-a]pyrazin-1-yl]-2,3-difluoro-phenyl]-2-(3-chlorophenyl)-2-hydroxy-acetamide]	251 to 500	251 to 500
[2H]C([2H])([2H])c1nc(-c2ccc(NC(=O)C(O)c3cccc(Cl)c3)c(F)c2F)c2c(N)ncc(Cl)n12 (centres unmarked) [Example 145, N-[4-[8-amino-5-chloro-3-(trideuteriomethyl)imidazo[1,5-a]pyrazin-1-yl]-2,3-difluoro-phenyl]-2-(3-chlorophenyl)-2-hydroxy-acetamide]	1 to 25	1 to 25
[2H]C([2H])([2H])c1nc(-c2ccc(NC(=O)C(O)c3cccc(C(F)(F)F)c3)c(F)c2F)c2c(N)ncc(C)n12 (centres unmarked) [Example 146, N-[4-[8-amino-5-methyl-3-(trideuteriomethyl)imidazo[1,5-a]pyrazin-1-yl]-2,3-difluoro-phenyl]-2-hydroxy-2-[3-(trifluoromethyl)phenyl]acetamide]	1 to 25	1 to 25
[2H]C([2H])([2H])c1nc(-c2ccc(NC(=O)C(O)c3cccc(C(F)(F)F)c3)c(F)c2F)c2c(N)ncc(C)n12 (centres unmarked) [Example 147, N-[4-[8-amino-5-methyl-3-(trideuteriomethyl)imidazo[1,5-a]pyrazin-1-yl]-2,3-difluoro-phenyl]-2-hydroxy-2-[3-(trifluoromethyl)phenyl]acetamide]	26 to 50	101 to 250

Further lines, with some results ahead:

IC50 [1] [nM]	SMILES	IC50 [2] [nM]
1 to 25	[2H]C([2H])([2H])c1nc(-c2ccc(NC(=O)C(O)c3cccc(F)c3)c(F)c2)c2c(N)ncc(C)n12 (centres unmarked) [Example 123, N-[4-[8-amino-5-methyl-3-(trideuteriomethyl)imidazo[1,5-a]pyrazin-1-yl]-2-fluoro-phenyl]-2-(3-fluorophenyl)-2-hydroxy-acetamide]	1 to 25
1 to 25	Cc1cnc(N)c2c(-c3ccc(NC(=O)C(O)c4cccc(F)c4)c(F)c3)nc(C)n12 (centres unmarked) [Example 125, N-(4-(8-amino-3,5-dimethyl-imidazo[1,5-a]pyrazin-1-yl)-2-fluorophenyl)-2-(3-fluorophenyl)-2-hydroxy-acetamide]	1 to 25
1 to 25	Cc1cnc(N)c2c(-c3ccc(NC(=O)C(O)c4cccc(F)c4)cc3OC(F)(F)F)nc(C)n12 (centres unmarked) [Example 127, N-(4-(8-amino-3,5-dimethyl-imidazo[1,5-a]pyrazin-1-yl)-3-(trifluoromethoxy)phenyl)-2-(3-fluorophenyl)-2-hydroxyacetamide]	101 to 250
1 to 25	Cc1cn2c(C)nc(-c3ccc(NC(=O)C(O)c4cccc(F)c4)c(F)c3F)c2c(N)n1 (centres unmarked) [Example 128, N-(4-(8-amino-3,6-dimethyl-imidazo[1,5-a]pyrazin-1-yl)-2,3-difluoro-phenyl)-2-(3-fluorophenyl)-2-hydroxyacetamide]	1 to 25
1 to 25	[2H]C([2H])([2H])c1nc(-c2ccc(NC(=O)C(O)c3cccc(F)c3)c(F)c2F)c2c(N)nc(C)cn12 (centres unmarked) [Example 130, N-[4-[8-amino-6-methyl-3-(trideuteriomethyl)imidazo[1,5-a]pyrazin-1-yl]-2,3-difluoro-phenyl]-2-(3-fluoro-phenyl)-2-hydroxy-acetamide]	1 to 25
1 to 25	[2H]C([2H])([2H])c1nc(-c2ccc(NC(=O)C(O)c3cccc(F)c3)c(F)c2F)c2c(N)ncc(C)n12 (centres unmarked) [Example 132, N-[4-[8-amino-5-methyl-3-(trideuteriomethyl)imidazo[1,5-a]pyrazin-1-yl]-2,3-difluoro-phenyl]-2-(3-fluoro-phenyl)-2-hydroxy-acetamide]	1 to 25
1 to 25	[2H]C([2H])([2H])c1nc(-c2ccc(NC(=O)C(O)c3cccc(F)c3)c(F)c2F)c2c(N)ncc(C)n12 (centres unmarked) [Example 133, N-[4-[8-amino-5-methyl-3-(trideuteriomethyl)imidazo[1,5-a]pyrazin-1-yl]-2,3-difluoro-phenyl]-2-(3-fluoro-phenyl)-2-hydroxy-acetamide]	101 to 250
1 to 25	[2H]C([2H])([2H])c1nc(-c2ccc(NC(=O)C(O)c3cccc(F)c3)c(F)c2F)c2c(N)ncc(C(F)(F)F)n12 (centres unmarked) [Example 134, N-[4-[8-amino-3-(trideuteriomethyl)-5-(trifluoromethyl)imidazo[1,5-a]pyrazin-1-yl]-2,3-difluoro-phenyl]-2-(3-fluorophenyl)-2-hydroxy-acetamide]	1 to 25
1 to 25	[2H]C([2H])([2H])c1nc(-c2ccc(NC(=O)C(O)c3cccc(F)c3)c(F)c2F)c2c(N)ncc(Cl)n12 (centres unmarked) [Example 136, N-[4-[8-amino-5-chloro-3-(trideuteriomethyl)imidazo[1,5-a]pyrazin-1-yl]-2,3-difluoro-phenyl]-2-(3-fluoro-phenyl)-2-hydroxy-acetamide]	1 to 25
1 to 25	[2H]C([2H])([2H])c1nc(-c2ccc(NC(=O)C(O)c3cccc(F)c3)c(F)c2F)c2c(N)ncc(Cl)n12 (centres unmarked) [Example 137, N-[4-[8-amino-5-chloro-3-(trideuteriomethyl)imidazo[1,5-a]pyrazin-1-yl]-2,3-difluoro-phenyl]-2-(3-fluoro-phenyl)-2-hydroxy-acetamide]	251 to 500
1 to 25	[2H]C([2H])([2H])c1nc(-c2ccc(NC(=O)C(O)c3cccc(Cl)c3)c(F)c2F)c2c(N)ncc(C)n12 (centres unmarked) [Example 138, N-[4-[8-amino-5-methyl-3-(trideuteriomethyl)imidazo[1,5-a]pyrazin-1-yl]-2,3-difluoro-phenyl]-2-(3-chloro-phenyl)-2-hydroxy-acetamide]	1 to 25
1 to 25	[2H]C([2H])([2H])c1nc(-c2ccc(NC(=O)C(O)c3cccc(Cl)c3)c(F)c2F)c2c(N)ncc(C)n12 (centres unmarked) [Example 139, N-[4-[8-amino-5-methyl-3-(trideuteriomethyl)imidazo[1,5-a]pyrazin-1-yl]-2,3-difluoro-phenyl]-2-(3-chlorophenyl)-2-hydroxy-acetamide]	101 to 250
1 to 25	[2H]C([2H])([2H])c1nc(-c2ccc(NC(=O)C(O)c3cccc(Cl)c3)c(F)c2F)c2c(N)nc(C)cn12 (centres unmarked) [Example 140, N-[4-[8-amino-6-methyl-3-(trideuteriomethyl)imidazo[1,5-a]pyrazin-1-yl]-2,3-difluoro-phenyl]-2-(3-chlorophenyl)-2-hydroxy-acetamide]	1 to 25
1 to 25	[2H]C([2H])([2H])c1nc(-c2ccc(NC(=O)C(O)c3cccc(Cl)c3)c(F)c2F)c2c(N)ncc(C(F)(F)F)n12 (centres unmarked) [Example 142, N-[4-[8-amino-3-(trideuteriomethyl)-5-(trifluoromethyl)imidazo[1,5-a]pyrazin-1-yl]-2,3-difluoro-phenyl]-2-(3-chlorophenyl)-2-hydroxy-acetamide]	1 to 25
1 to 25	[2H]C([2H])([2H])c1nc(-c2ccc(NC(=O)C(O)c3cccc(Cl)c3)c(F)c2F)c2c(N)ncc(Cl)n12 (centres unmarked) [Example 144, N-[4-[8-amino-5-chloro-3-(trideuteriomethyl)imidazo[1,5-a]pyrazin-1-yl]-2,3-difluoro-phenyl]-2-(3-chlorophenyl)-2-hydroxy-acetamide]	51 to 100
